Data on 11 compounds can be found in PubChem BioAssay AID2060513 (Molecular Pharmacology Branch, DTP, NCI, 2025).

Where “and” joins values, the source holds several entries; their conditions need not be identical. Identical values can stand only once. Some results are limits rather than exact numbers.

This assay relates to 299254-011-R-J1-PDC complex spheroids viability. Kind of assay: Anticancer human tumor 299254-011-R-J1-PDC patient-derived melanoma cell line growth inhibition [GQUAD]. The following applies: for viability, T/C: stronger effect = lower value. From the text: DNA G-quadruplex Stabilizer Agents in Combinations in Complex Spheroids
A high-throughput screen of multi-cell type tumor spheroids was designed to identify active combinations of DNA G-quadruplex stabilizer agents and targeted small molecules. Complex spheroids include a stromal component modeled by human endothelial cells (HUVEC) and fibroblasts modeled by human mesenchymal stem cells (MSCs). The concentration ranges selected for each drug and investigational agent were based upon clinically achievable concentrations if the clinical Cmax of the agent was known.
Compounds. The drugs and investigational agents: pidnarulex (CX-5461; NSC782164), APTO-253 (NSC789042), BRACO-19 (NSC847499), peposertib (NSC802822), ceralasertib (NSC780249), elimusertib (NSC800525), camonsertib (NSC841442), AZD-1390 (NSC803789), olaparib (NSC753686), talazoparib (NSC767125), ART-558 (NSC835418), sotorasib (NSC818433), MRTX-1133 (NSC836407), SN-38 (NSC673596), topotecan (NSC609699), etoposide (NSC141540), doxorubicin (NSC123127), gemcitabine (NSC613327), 5-fluorouracil (NSC19893), paclitaxel (NSC125973), vemurafenib (NSC761431), panobinostat (NSC761190), R-306465 (JNJ-16241199; NSC773264), adavosertib (NSC754352), TP-3654 (NSC805149), carboplatin (NSC241240), KSQ-4279 (NSC840948), and staurosporine (NSC755774) were obtained from the National Cancer Institute (NCI) Developmental Therapeutics Program Chemical Repository (34). The FDA-approved anticancer drug set is available from the NCI Developmental Therapeutics Program. […] The stock solutions were prepared in dimethyl sulfoxide (DMSO, Sigma-Aldrich, St. Louis, MO, cat. D2650) at 800-fold the tested concentration and stored at -70 degrees C prior to their use. All drugs and investigational agents were tested over a range starting from a high concentration at or near the clinical Cmax and decreasing in half-log increments. If the clinical Cmax for an agent had not been determined, the highest concentration tested was 10 microM.
2.3 Cell Culture. All cells were maintained in an incubator at 37 degrees C and 5% CO2 with 95% humidity. The PDC lines were cultured according to standard operating procedures established by the NCI PDMR. All PDCs were thawed and cultured in Matrigel-coated flasks prepared with a working solution of 1X Ham's F-12 nutrient mix, without supplementation (Invitrogen, cat. 11765054), 100 U/mL penicillin-streptomycin (Invitrogen, cat. 15140122), and 2.5% Matrigel (Corning Inc., cat. 354248) for the first three passages. The 857933-349-R-J2-PDC line was cultured in 6C/Colon 1B media, which includes advanced DMEM/F-12 (Thermo Fisher Scientific, cat. 12634028), 10 mM HEPES (Thermo Fisher Scientific, cat. 15630080), 1X GlutaMAX supplement (Thermo Fisher Scientific, cat. 35050061), 0.1 mg/mL primocin (InvivoGen, cat. ant-pm-2), 10% defined fetal bovine serum, heat inactivated (HyClone Laboratories Inc., cat. SH30070.03HI), 50% L-WRN conditioned media (ATCC, cat. CRL-3276), 1.25 mM N-Acetyl-L-cysteine (Sigma-Aldrich, cat. A9165), 10 mM nicotinamide (Sigma-Aldrich, cat. N0636), 1X B-27 supplement (Thermo Fisher Scientific, cat. 17504044), 1X N-2 supplement (Thermo Fisher Scientific, cat. 17502048), 10 microM Y-27632 dihydrochloride (Tocris Bioscience, cat. 1254), and 50 ng/mL human EGF recombinant protein (Thermo Fisher Scientific, cat. PHG0311). The 485176-168-R4-J1-PDC line was cultured in Panc media, which includes all 6C/Colon 1B media components plus 100 ng/mL human FGF-10 (Thermo Fisher Scientific, cat. 100-26), 500 nM SB-431542 (Selleckchem, cat. S1067), and gastrin (Tocris, cat. 3006).
[…]
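Also: spheroids exposed to the agents for seven days before readout.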
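For viability, T/C in this document: percent viability relative to DMSO vehicle control wells = 100%.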

For orientation: viability, T/C means the result in the treated group divided by that in the control group, in per cent. By IC50 is commonly meant the midpoint of a concentration-inhibition curve. As for `COc1cc(C2c3cc4c(cc3C(OC3OC5COC(C)OC5C(O)C3O)C3COC(=O)C23)OCO4)cc(OC)c1O` (centres undefined), the viability, T/C is 102% and 90.8% and 122% (compound 0.0316 µM); 91.4% and 97.2% and 87.9% (compound 0.1 µM); 85.3% and 106% (2×) (compound 0.316 µM); 97.1% and 91.9% and 92.2% (compound 1 µM); 75.5% and 101% and 99% (compound 3.16 µM); 94.6% and 84.8% and 92.6% (compound 10 µM). Further, the half-inhibitory concentration (IC50) (curve of compound) was > 10 µM.

`COc1ccc([C@@H](O)c2cc(-c3ncnc4cc(N5CCOCC5)ccc34)c(F)cc2Cl)nn1`: the viability, T/C (compound 0.0316 µM) is 119% and 95% and 106%; the viability, T/C (compound 0.1 µM) is 103% and 97.4% and 85.3%; the viability, T/C (compound 0.316 µM) was 121% and 93.8% and 102%; the viability, T/C (compound 1 µM) is 89.3% and 96.7% and 82.5%; the viability, T/C (compound 3.16 µM) was 90.7% and 87.1% and 84.1%; the viability, T/C (compound 10 µM) is 43.1% and 49.8% and 47%. In addition, the 50% inhibitory concentration (IC50) (curve of compound) is 8.53 µM and 9.96 µM and 9.31 µM.

On to `COc1cccc2c1C(=O)c1c(O)c3c(c(O)c1C2=O)CC(O)(C(=O)CO)CC3OC1CC(N)C(O)C(C)O1` (centres undefined), for which the viability, T/C runs as follows: (compound 0.0316 µM) 107% and 92.6% and 98%; (compound 0.1 µM) 99.6% and 107% and 89.3%; (compound 0.316 µM) 88.1% and 81.5% and 113%; (compound 1 µM) 75.9% and 86.5% and 81.4%; (compound 3.16 µM) 60.2% and 77% and 70.5%; (compound 10 µM) 21.2% and 28% and 20.3%. Besides, the IC50 (curve of compound) was 3.89 µM and 5.82 µM and 4.94 µM.

Regarding `Cc1[nH]c2ccc(F)cc2c1-c1nc2c3cccnc3c3ncccc3c2[nH]1`, the viability, T/C (compound 0.0316 µM) was 99.1% [middle of 12 runs] and the viability, T/C (compound 0.316 µM) was 95.6% [middle of 12 runs]. In addition, the IC50 is, setting by setting: (compound alone, run of 02/20/2024) > 10 µM; (compound alone, run of 02/26/2024) > 10 µM.

On to `Cc1[nH]c2ccccc2c1CCNCc1ccc(/C=C/C(=O)NO)cc1`, for which the viability, T/C (compound 0.000999 µM) is 99.9% and 96.8% and 89.5%; the viability, T/C (compound 0.00316 µM) was 87.9% and 114% and 103%; the viability, T/C (compound 0.00999 µM) is 94.2% and 94.3% and 96%; the viability, T/C (compound 0.0316 µM) is 96.9% and 88.8% and 85.4%; the viability, T/C (compound 0.0999 µM) is 60.7% and 72.7% and 67.3%; the viability, T/C (compound 0.316 µM) is 19.8% and 19.1% and 16.6%. Also, the half-inhibitory concentration (IC50) (curve of compound) was 0.135 µM and 0.159 µM and 0.147 µM.

With `Cc1cccc(N(C)C(=O)C2C(O)CCN2c2nc(C)cc(C(F)(F)F)c2C#N)c1` (centres undefined), the viability, T/C reads like this: (compound 0.0316 µM) 96.8% and 97.5% and 104%; (compound 0.1 µM) 96.3% and 100% and 97.4%; (compound 0.316 µM) 99.6% and 98.6% and 93.5%; (compound 1 µM) 96.4% and 89.9% and 93.7%; (compound 3.16 µM) 103% and 83.6% and 97%; (compound 10 µM) 79.5% and 81.2% and 102%. Besides, the 50% inhibitory concentration (IC50) (curve of compound) was > 10 µM.

With `Cn1ncnc1[C@H]1c2n[nH]c(=O)c3cc(F)cc(c23)N[C@@H]1c1ccc(F)cc1`, the viability, T/C was 105% (2×) and 104% (compound 0.000999 µM); 103% and 101% and 89.8% (compound 0.00316 µM); 92.7% and 94.7% and 116% (compound 0.00999 µM); 107% and 106% and 84.5% (compound 0.0316 µM); 88.5% and 94.8% and 95.9% (compound 0.0999 µM); 125% and 105% and 92.4% (compound 0.316 µM). Moreover, for the setting “curve of compound”, the IC50 is > 0.316 µM.

On to `Nc1ccn(C2OC(CO)C(O)C2(F)F)c(=O)n1` (centres undefined), for which the viability, T/C by setting is: (compound 0.0316 µM) 95.8% and 98.2% and 86.5%; (compound 0.1 µM) 83.6% and 88.4% and 76%; (compound 0.316 µM) 80.3% and 72.2% and 61.7%; (compound 1 µM) 41.2% and 60.1% and 52.5%; (compound 3.16 µM) 58.2% and 50.2% and 50.8%; (compound 10 µM) 53.6% and 73% and 51.9%. Further, under “curve of compound”, the IC50 was > 10 µM.

`O=C(NO)c1cnc(N2CCN(S(=O)(=O)c3ccc4ccccc4c3)CC2)nc1`: the viability, T/C runs as follows: (compound 0.0316 µM) 99.8% and 95.4% and 87.7%; (compound 0.1 µM) 103% and 87.4% and 81.9%; (compound 0.316 µM) 73.4% and 75% and 32.2%; (compound 1 µM) 3.62% and 4.16% and 0.67%; (compound 3.16 µM) 0.32% and 0.22%; (compound 10 µM) 0.34% and 0.21%. The IC50 (curve of compound) was 0.465 µM and 0.475 µM and 0.21 µM.

For the compound `O=C(c1cc(Cc2n[nH]c(=O)c3ccccc23)ccc1F)N1CCN(C(=O)C2CC2)CC1`, the viability, T/C (compound 0.0316 µM) was 94.2% and 117% and 81.5%; the viability, T/C (compound 0.1 µM) was 111% and 86.5% and 85.5%; the viability, T/C (compound 0.316 µM) was 101% and 84.9% and 95.2%; the viability, T/C (compound 1 µM) is 115% and 101% and 91.1%; the viability, T/C (compound 3.16 µM) was 132% and 80.7% and 87.9%; the viability, T/C (compound 10 µM) was 97.2% and 71.2% and 88.4%. The IC50 (curve of compound) is > 10 µM.

As to `O=c1[nH]cc(F)c(=O)[nH]1`, the viability, T/C by setting is: (compound 0.0316 µM) 117% and 81.7% and 100%; (compound 0.1 µM) 110% and 105% and 96.5%; (compound 0.316 µM) 114% and 113% and 103%; (compound 1 µM) 103% and 86.2% and 122%; (compound 3.16 µM) 114% and 113% and 83.2%; (compound 10 µM) 103% and 85.3% and 87.8%. Further, the 50% inhibitory concentration (IC50) (curve of compound) is > 10 µM.
